Data published in patent publication US7629313B2, “Immunomodulatory polymeric antigens for treating inflammatory pathologies” (Eli Lilly and Company, priority 2003, dated 2009).

Tests used:
[1] = system: human monocyte-derived iDC; assay: Uptake of fluorescent polymer by iDCs, confocal microscopy; assay type: cell-based; conditions: two minutes incubation at 37° C.; labeled Compound 15 50 μg/ml, FITC-dextran 1 mg/ml
Protocol: Oregon-green labeled Compound 15 is prepared as described in PCT International Publication WO 01/79242. Briefly, Oregon-green (Molecular Probes, Eugene, Oreg.)-conjugated Lipid II is included in an MtgA-polymerization reaction at a ratio of 1:4 with unlabeled Lipid 11 to produce a 25% Oregon-green labeled polymer. The polymeric material is purified and treated as previously described. For uptake studies, fluorescent Compound 15 at a final concentration of 50 μg/ml, or Lysine-fixable FITC-conjugated dextran (40 kDa size, Molecular Probes, Eugene, Oreg.) at 1 mg/ml, is incubated with human monocyte-derived iDC prepared as described in Example 5 for two minutes at 37° C. After incubation, extracellular probe is removed by washing the cells four times in ice cold complete DC medium (Example 5). Washed cells are then incubated at 37° C. and staining is stopped at two-minute intervals by washing in 1% paraformaldehyde fix diluted in flow wash solution (which also contains the metabolic poison sodium azide; protocol described in Example 5). Glass slide samples are prepared at each time interval and sealed with clear nail polish. Samples are stored at −20° C. and protected from light until analysis on a Radiance 2100 confocal microscope (BioRad Laboratories, Hercules, Calif.).

[2] = system: human monocyte-derived dendritic cells; assay: Kinetics of fluorescent polymer uptake by iDCs, flow cytometry; assay type: cell-based; conditions: labeled Compound 15 50 μg/ml, FITC-dextran 1 mg/ml
Protocol: In these experiments, human monocyte-derived dendritic cells are prepared as described in Example 5. Dendritic cells are resuspended at 5×10^5 cells/sample and incubated […] at 37° C. At the start of each time course, cells are incubated with either fluorescent Compound 15 at a final concentration of 50 μg/ml or Lysine-fixable FITC-conjugated dextran (40 kDa size, Molecular Probes, Eugene, Oreg.) at 1 mg/ml. At 0, 2, 10, 20, 30, 40, and 50 minutes after the start of incubation, uptake is stopped by washing the cells with four washes of ice cold flow wash buffer (Example 5). The washed cells are fixed in paraformaldehyde also as described in Example 5. Stained, fixed cells are stored at 4° C. protected from light until analysis using a FC500 flow cytometer (Beckman Coulter, Miami, Fla.). Once cells are correctly gated for forward and side scatter profiles, mean fluorescent intensity of the population is evaluated for 10,000 cells/sample. […] To control for non-specific adhesion of the molecules to the cell surface (which could be read as a positive in this assay), cells are also incubated with fluorescent polymers at 0° C. […] At this temperature, signal from neither the control molecule (FITC-dextran) nor Compound 15 increases over time (FIG. 5).

With FITC-Dextran the “Intracellular localization of polymer in iDCs (confocal images)” value [1] was “Localization of polymer in endocytic vacuoles” and the “Uptake by DC at 0° C. (cells metabolically inactive)” value [2] was “inhibited”.
